Measurements from patent US6610707B1, “Heterocyclic compounds as inhibitors of rotomase enzymes” (Pfizer Inc., priority 1998, dated 2003).

Biological target: human recombinant FKBP-12 (Homo sapiens, UniProt P62942)
Assay: coupled colorimetric PPIase (rotamase) assay, IC50 against FKBP-12
Type: biochemical
Conditions: human recombinant FKBP-12, substrate succinyl-AFPF-pNA, 10° C., pH 8.0
Excerpt: The affinity of the compounds of the formula (I) for FKBP-12 can be determined in vitro in a coupled colorimetric PPlase assay using similar procedures to published methods (e.g. see Kofron, J. L., et al., Biochemistry, 1991, 30, 6127-6134, Zarnt, T., et al., Biochem. J. 1995, 305, 159-164, Holt, D. A., et al., J. Am. Chem. Soc., 1993,115, 9925-9938). In these methods, the cis-trans isomerisation of a hydrophobic amino acid-proline bond in a tetrapeptide substrate (e.g. the phenylalanine-proline bond in N-succinyl-ala-phepro-phe-p-nitroanilide [succinyl-AFPF-pNA]) can be determined by monitoring cleavage of pNA from the transPro-containing peptide by an excess of chymotrypsin.
The IC50 (the concentration of the compound of the formula (I) producing 50% inhibition) values were determined using the following assay methodology. Assay buffer (2.175 ml) (50 mM 4-(2-hydroxyethyl)-1-piperazineethanesulphonic acid (HEPES), 100 mM NaCl, 1 mM dithiothreitol (DTT), pH 8.0) is equilibrated to 10° C. in a cuvette. 12.5 μl of a solution of the present compound in DMSO, 250 μl of a 60 mg/ml solution of a-chymotrypsin in 1 mM aqueous hydrochloric acid and then 50 μl of a solution of human recombinant FKBP-12 (4.5 μM) in assay buffer are added and mixed. The reaction is initiated by addition of 12.5 μl of a solution of 20 mM succinyl-AFPF-pNA in DMSO. The absorbance at 390 nm is monitored for one minute collecting data every 0.25 second. Data are fitted with a first order rate equation with offset and the rate constant obtained corrected for the rate of uncatalysed isomerisation of the substrate. The rate constant determined at different inhibitor concentrations (10 nM to 100 μM) is expressed as % inhibition of the control rate constant. The IC50 is estimated using a nonlinear least squares curve fitting routine of the sigmoidal dose response data.

Sequence of human recombinant FKBP-12 (P62942 whole entry): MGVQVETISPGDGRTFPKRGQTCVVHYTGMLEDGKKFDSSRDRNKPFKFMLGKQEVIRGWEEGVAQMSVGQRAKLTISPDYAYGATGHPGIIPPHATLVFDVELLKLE

| IC50 [nM] | Structure (SMILES) |
| --- | --- |
| 95 | O=S(=O)(c1nc2ccccc2[nH]1)N1CCCC[C@H]1c1noc(Cc2ccccc2)n1 [Example 1, 1H-Benzo[d]imidazol-2-yl[(2S)-2-(5-benzyl-1,2,4-oxadiazol-3-yl)-1-piperidyl]sulfone] |
| 336 | O=S(=O)(CC1CCCCC1)N1CCCC[C@H]1c1noc(COC2CCNCC2)n1 [Example 23, 3-[(2S)-1-Cyclohexylmethylsulfonyl-2-piperidyl]-5-[4-piperidyloxymethyl]-1,2,4-oxadiazole] |
| 1670 | O=S(=O)(c1ccc(F)cc1)N1CCCC[C@H]1c1nnn(Cc2ccccc2)n1 [Example 43] |
| 91 | CNCc1ccc(OCc2nc(C3CCCCN3S(=O)(=O)c3nc4ccccc4[nH]3)no2)cc1 (centres unmarked) [Example 14, N-[4-(3-[1-(1H-Benzo[d]imidazol-2-ylsulfonyl)-2-piperidyl]-1,2,4-oxadiazol-5-ylmethoxy)benzyl]-N-methylamine] |
| 81 | NCc1ccc(-c2nc([C@@H]3CCCCN3S(=O)(=O)CC3CCCCC3)no2)o1 [Example 25, [5-(3-(2S)-1-[(Cyclohexylmethyl)sulfonyl]-2-piperidyl-1,2,4-oxadiazol-5-yl)-2-furyl]methylamine] |
| 2010 | O=S(=O)(c1ccc(F)cc1)N1CCCC[C@H]1c1nnc(CCc2ccccc2)o1 [Example 42] |
| 442 | O=S(=O)(c1nc2ccccc2[nH]1)N1CCCCC1c1noc(-c2ncccn2)n1 (centres unmarked) [Example 65] |

Biological target: T1, human recombinant FKBP52 (Homo sapiens, UniProt Q02790)
T1 sequence (Q02790 1-459): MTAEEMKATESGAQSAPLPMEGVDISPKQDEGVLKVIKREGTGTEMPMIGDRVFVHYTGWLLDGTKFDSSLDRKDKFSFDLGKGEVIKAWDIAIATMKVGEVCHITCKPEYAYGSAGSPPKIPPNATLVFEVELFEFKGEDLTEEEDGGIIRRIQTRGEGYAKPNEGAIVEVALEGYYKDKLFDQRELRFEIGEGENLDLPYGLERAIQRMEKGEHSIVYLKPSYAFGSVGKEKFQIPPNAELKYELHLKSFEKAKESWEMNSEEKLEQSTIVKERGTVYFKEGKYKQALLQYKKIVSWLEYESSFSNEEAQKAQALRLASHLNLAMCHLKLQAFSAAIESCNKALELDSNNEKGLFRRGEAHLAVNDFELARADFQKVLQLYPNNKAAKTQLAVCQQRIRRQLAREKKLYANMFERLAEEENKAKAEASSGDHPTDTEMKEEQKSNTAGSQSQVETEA
Assay: coupled colorimetric PPIase assay, Ki,app against FKBP52
Type: biochemical
Conditions: human recombinant FKBP52, substrate succinyl-ALPF-pNA, printed in the IC50 (nm) FKBP-12 column, read-out: Ki FKBP-52

| Ki [nM] | Structure (SMILES) |
| --- | --- |
| 685 | NCc1ccc(OCc2nc([C@@H]3CCCCN3S(=O)(=O)c3nc4ccccc4[nH]3)no2)cc1 [Example 11, 4-(3-[(2S)-1-(1H-Benzo[d]imidazol-2-ylsuffonyl)-2-piperidyl]-1,2,4-oxadiazol-5-ylmethoxy)benzylamine] |
